Reference: patent US20050049299A1, “Selective inhibitors of stat-3 activation and uses thereof” (priority 2003, published 2005)

Key:
Type in all cases: cell-based, human
multiple myeloma cells = experiment: Proliferation of multiple myeloma cells, curcumin vs AG490 (data not shown); settings: 100 μM, 24 hours (data not shown)
STAT5 phosphorylation = experiment: Constitutive STAT5 phosphorylation in U266 cells (Western blot); settings: 50 μM, conditions of complete STAT3 phosphorylation inhibition
Experimental: U266 cells (2×10^6) were treated with the indicated concentrations of curcumin for 1 h, or treated with 50 μM curcumin for the indicated durations and levels of phosphorylated-STAT3 (upper panel) and STAT3 (lower panel) were examined in whole cell extracts by Western Blotting. […] U266 cells (2×10^6) were treated with 50 μM curcumin for indicated durations, and examined for phosphorylated and nonphosphorylated-STAT3, and STAT5. […] U266 cells (2×10^6) were preincubated with curcumin (50 μM) for indicated durations before treatment with IFN-α (10 ng/ml) for additional 30 min and then examined for phosphorylated and nonphosphorylated-STAT1.
For detection of STAT proteins, whole-cell extracts were prepared by lysing the curcumin-treated cells in lysis buffer (20 mM Tris, pH 7.4, 250 mM NaCl, 2 mM EDTA, pH 8.0, 0.1% Triton-X100, 0.01 mg/ml aprotinin, 0.005 mg/ml leupeptin, 0.4 mM PMSF, and 4 mM NaVO4). Lysates were then spun at 14000 rpm for 10 min to remove insoluble material, and resolved on a 7.5% gel. After electrophoresis, the proteins were electrotransferred to a nitrocellulose membrane, blocked with 5% nonfat milk, and probed with anti-STAT antibodies (1:1000) overnight at 4° C. The blot was washed, exposed to HRP-conjugated secondary antibodies for 1 h, and finally examined by chemiluminescence (ECL, Amersham Pharmacia Biotech. Arlington Heights, Ill.). […]

STAT3 phosphorylation = experiment: IL-6-induced STAT3 phosphorylation in JMAR cells (Western blot)
Experimental: JMAR cells (2×10^6 cells) were treated with IL-6 (10 ng/ml) for the indicated time and whole cell extracts were prepared. These extracts (30 μg) were resolved on 7.5% SDS-PAGE, electrotransferred to a nitrocellulose membrane and probed for p-STAT3 (upper panel) and stripped and re-probed for STAT3 (lower panel). […] JMAR cells were pretreated with curcumin (50 μM) for indicated durations and stimulated with IL-6 (10 ng/ml) for 10 mins and whole cell extract prepared and probed as mentioned earlier.
JMAR cells were treated with IL-6 for different durations and the levels of p-STAT3 and STAT3 were examined. Treatment with IL-6 as early as 5 mins induced STAT3 phosphorylation in JMAR cells (FIG. 14A, upper panel). However, STAT3 levels were unaffected (FIG. 14A, lower panel).
Further, since IL-6 induced STAT3 phosphorylation in JMAR cells, the ability of curcumin to inhibit this STAT3 phosphorylation was also examined. JMAR cells were pretreated with curcumin for different durations and stimulated with IL-6 for 10 minutes. Both the status of p-STAT3 and STAT3 were determined in the whole cell extracts of these cells. Treatment with curcumin for as early as 30 minutes led to decline in the phosphorylation of STAT3 which declined further with increased exposure to curcumin. Exposure to curcumin for 2 hours inhibited STAT3 phosphorylation in JMAR cells (FIG. 14B, upper panel). The STAT3 levels were unaffected by this treatment (FIG. 14B, lower panel).

[1] = tested on: STAT3 nuclear translocation; experiment: Immunocytochemistry for STAT3 localization in U266 cells; settings: 50 μM, 60 minutes
Experimental: U266 cells were incubated alone or with curcumin (50 μM) for 60 minutes and then analyzed for the distribution of STAT3 by immunocytochemistry (originial magnification, 200X).
FIGS. 6A-C show& the effect of cell permeable STAT3 inhibitor peptide (STAT3iP) on STAT3 phosphorylation and cell viability in U266 cells. […] Results are shown as mean (±s.d. indicated by error bar) of absorbance (570 nm) of triplicate cultures compared to the untreated control.
Curcumin-treated multiple myeloma cells were plated on a glass slide by centrifugation using a Cytospin 4 (Thermoshendon, Pittsburg, Pa.), air-dried for 1 h at room temperature, and fixed with cold acetone. After a brief washing in PBS, slides were blocked with 5% normal goat serum for 1 h and then incubated with rabbit polyclonal anti-human STAT3 antibody (dilution, 1:100). After overnight incubation, the slides were washed and then incubated with goat anti-rabbit IgG-Alexa 594 (1:100) for 1 h and counter-stained for nuclei with Hoechst (50 ng/ml) for 5 min. Stained slides were mounted with mounting medium (Sigma Co.) and analyzed under an epifluorescence microscope (Labophot-2, Nikon, Tokyo, Japan). Pictures were captured using Photometrics Coolsnap CF color camera (Nikon, Lewisville, Tex.) and MetaMorph version 4.6.5 software (Universal Imaging Corp., Downingtown, Pa.). […]

[2] = 50 μM curcumin, IL-6 10 ng/ml 10 min

For `COc1cc(/C=C/C(=O)CC(=O)/C=C/c2ccc(O)c(OC)c2)ccc1O` [curcumin, diferuloylmethane], the “proliferation of multiple myeloma cells” value (multiple myeloma cells) was “completely suppressed”, the “levels of constitutively phosphorylated STAT5” value (STAT5 phosphorylation) was “neither altered the levels of constitutively phosphorylated STAT5” and the “earliest treatment time leading to decline of IL-6-induced STAT3 phosphorylation” value (STAT3 phosphorylation; [2]) was 30 min. The “exposure that inhibited IL-6-induced STAT3 phosphorylation” value (STAT3 phosphorylation; [2]) was 2 h, the STAT3 levels (STAT3 phosphorylation; curcumin pretreatment plus IL-6) was “unaffected” and the “translocation of STAT3 to the nucleus” value [1] was “prevented the translocation of the STAT3 to the nucleus”.
